Laboratory results published in patent US20170158807A1, “EPOXY RESIN COMPOSITION FOR ELECTRONIC MATERIAL, CURED PRODUCT THEREOF AND ELECTRONIC MEMBER” (DIC CORPORATION, priority 2014, published 2017).

Legend:
[1] = Viscosity of the liquid epoxy resin; format: physicochemical; conditions: epoxy resin as obtained
Experimental: In a flask equipped with a thermometer, a dropping funnel, a condenser tube, and a stirrer, while being purged with nitrogen gas, 43 g of 2,4,4′-trihydroxybiphenyl, 295 g of epichlorohydrin, and 103 g of n-butanol were charged and dissolved. After the temperature was raised to 40° C., 53 g of a 48% by mass sodium hydroxide aqueous solution was added over 8 hours. The temperature was then further raised to 50° C., and the mixture was allowed to react for further 1 hour. After the completion of the reaction, 83 g of water was added, the mixture was allowed to stand, and then the lower layer was disposed. After that, unreacted epichlorohydrin was removed by distillation at 150° C. under reduced pressure. To the obtained crude epoxy resin, 118 g of methyl isobutyl ketone was added to dissolve the epoxy resin. To the solution, 67 g of a 10% by mass sodium hydroxide aqueous solution was further added, the mixture was allowed to react at 80° C. for 2 hours, and then washing with water was repeated three times until the pH of the washing liquid became neutral. Next, the system was dehydrated by azeotropic distillation, and subjected to microfiltration, followed by removing the solvent by distillation under reduced pressure, whereby 63 g of 2,4,4′-triglycidyloxybiphenyl (A-1) which was the target epoxy resin was obtained. […]

[2] = Melt viscosity at 150° C. (ASTM D4287, ICI viscometer method); format: physicochemical; conditions: measurement temperature 150° C.
Experimental: 1) Melt viscosity at 150° C.: measured by the following apparatus according to ASTM D4287.
Apparatus name: MODEL CV-1S manufactured by Codex

Compound	viscosity of liquid form [1] [Pa-s]	melt viscosity [2] [dPa·s]
c1cc(-c2ccc(OCC3CO3)cc2OCC2CO2)ccc1OCC1CO1 (stereo not shown) [Example A-1, 2,4,4′-triglycidyloxybiphenyl]	943	0.14
c1cc(-c2cc(OCC3CO3)cc(OCC3CO3)c2)ccc1OCC1CO1 (stereo not shown) [Example A-2, 3,4′,5-triglycidyloxybiphenyl]	–	0.27
c1c(OCC2CO2)cc(-c2cc(OCC3CO3)cc(OCC3CO3)c2)cc1OCC1CO1 (stereo not shown) [Example A-3, 3,3′,5,5′-tetraglycidyloxybiphenyl]	–	0.57
